Consider three substances from US20180305408A1, “COMPOUNDS FOR INDUCING TISSUE FORMATION AND USES THEREOF” (HISTIDE AG, priority 2015, published 2018).

No end group written: not given here.

Assay type in all cases: cell-based
For test [1], the system named is Human umbilical-vein endothelial cells. The test is described as follows: Endothelialization: area of adherent junctions (CD31) in HUVECs. The settings on record: after 36 hours of culture. As to the method:
Human umbilical-vein endothelial cells were cultured with and without endothelialization GFR-binding compounds as defined herein (SEQ ID NO: 26). An increase in the area of the adherent junctions (CD31) was observed after 36 hours of culture with GFR-binding compounds as defined herein (FIG. 10).

Test [2] has the same test system. The test is described as follows: Angiogenesis: tube-like structure formation by HUVECs. The settings on record: after 18 hours of culture. As to the method: Human umbilical-vein endothelial cells were cultured with and without vascular peptides (SEQ ID NO: 27).
For another test, the system named is Human epithelial cells. The test is described as follows: Wound healing scratch test, collective cell migration. The settings on record: after 18 hours of culture. The protocol:
Human epithelial cells were cultured with or without GFR-binding compounds as defined herein (SEQ ID NO: 28). A usual scratch test was applied (Nat Protoc 2: 329-333) on a monolayer of these epithelial cells in culture (FIG. 12a). An increase in the cell migration velocity for cells cultured with peptides was observed after 18 hours of culture. The cells migrated collectively and the communication between cells was maintained (FIG. 12b). In fact, the injury has been closed rapidly for the cells cultured with GFR-binding compounds as defined herein.

“SEQ ID NO: 26: endothelialization GFR-binding compound; sequence not in this part (RSVKVAKVRIKPHQGQHKEVQVGG; also: cyclic, ring type not given here)”: in test [1], the “area of the adherent junctions (CD31)” value is “increase”. Take “SEQ ID NO: 27: vascular peptide; sequence not in this part (SNITMQIMRIKPHQGQHIGEMSGG; also: cyclic, ring type not given here)”: the “formation of tube-like structures” value in test [2] was “formation of tube-like structures was observed”. For the substance “SEQ ID NO: 28: GFR-binding compound tested for wound healing; sequence not in this part (RPTQVQLRPVQVRKIEYVRKKPKLKKATV; also: cyclic, ring type not given here)”, in the test on Human epithelial cells, the cell migration velocity result is “increase”.
